Data published in US20040077580A1, “Antisense modulation of PI3K P85 Expression” (priority 2000, published 2004).

What was measured:
PI3K p85 mRNA = PI3K p85 mRNA expression in liver and fat of treated mice; type: in vivo, mouse
Protocol: Ob/ob mice are used as a model of obesity. The ob/ob phenotype is due to a mutation in the leptin gene on a C57BL/6J-Lep(ob) background.
In accordance with the present invention, the effects of ISIS 131410 (SEQ ID NO: 56) on PI3K p85 mRNA expression was investigated in the ob/ob mouse model of obesity.
Mice were treated at a dose of 25 mg/kg of ISIS 141925 or 25 mg/kg of ISIS 131410.
Treatment was continued for two weeks after which the mice were sacrificed and tissues collected for mRNA analysis. RNA values were normalized and are expressed as a percentage of saline treated control.
Lean littermates (ob/wt) were also examined for mRNA reduction of PI3K p85 in the liver at doses of 25 and 50 mg/kg of ISIS 131410 or saline treatment. In these animals, at both doses, the level of expression was reduced only minimally to 80% of control.

[1] = for Blood glucose level at day 14: 25 or 50 mg/kg intraperitoneal once a week
[2] = Serum insulin levels in ob/ob mice; type: in vivo, mouse; settings: male ob/ob mice; 50 mg/kg intraperitoneal once a week for two weeks
Text: Treatment was continued for two weeks with serum insulin levels being measured on day 14.

mouse PI3K p85 = assay: Inhibition of mouse PI3K p85 mRNA levels by antisense oligonucleotides, real-time quantitative RT-PCR; type: cell-based; set-up: concentration or dose not given beside the values; settings: chimeric phosphorothioate 2′-MOE gapmers, averaged from two experiments
Protocol: Cells were harvested 16 hours after oligonucleotide treatment.
Target sites are indicated by nucleotide numbers, as given in the sequence source reference (Genbank accession no. U50413; SEQ ID NO: 48), to which the oligonucleotide binds.
Cytidine residues are 5-methylcytidines throughout the oligonucleotides.
Data were obtained by real-time quantitative RT-PCR as described in other examples herein and are averaged from two experiments. […] If present, “N.D.” indicates “no data”.

PI3K p85 splice variants = assay: Expression of PI3K p85 splice variants in liver, immunoprecipitation with p110 and Western blot with p85pan antibody; type: in vivo, mouse; settings: livers of both ob/ob and wild-type mice
Text: ISIS 131410 is one of several antisense oligonucleotides of the present invention that hybridize to the longer p85α splice variant and not to the p55α or the p50α splice variant. Studies were therefore designed to study the effects of this antisense oligonucleotide on expression product of PI3K p85α splice variant.

[3] = male ob/ob mice, 25 mg/kg intraperitoneal once a week for two weeks, percentage of saline treated control
[4] = ob/ob mice, starting level 250 mg/dL at day 1

Substance	PI3K p85 mRNA level in fat (PI3K p85 mRNA; [3])	PI3K p85 mRNA level in liver (PI3K p85 mRNA; [3])	Blood glucose level at day 14 [1, 4] [mg/dL]	Serum insulin level at day 14 [2] [ng/mL]	PI3K p85 mRNA level in liver (PI3K p85 mRNA; lean littermates (ob/wt), at both doses, 25 and 50 mg/kg)	Hypoglycemia as a result of oligonucleotide treatment ([1]; mouse, in vivo)	Blood glucose level at day 7 ([1]; ob/ob mice, all doses (25 or 50 mg/kg) intraperitoneal once a week, starting level 250 mg/dL at day 1) [mg/dL]	Blood glucose level, constant throughout the study (average) ([1]; wild-type mice, all treatment groups (25 or 50 mg/kg), two weeks) [mg/dL]	% Inhib. of mouse PI3K p85 mRNA levels (mouse PI3K p85)	Species of PI3K p85 splice variant present in liver (PI3K p85 splice variants)
GCCACCGCCTATGTCTTCTC (listed as DNA, chemistry not given here) [ISIS 141925, the control oligonucleotide; scrambled control, reference compound]	no reduction	no reduction	240	28	–	–	–	–	–	–
cctggccatcactgaatcca (CCTGGCCATCACTGAATCCA; chemistry not given here) [ISIS 131410]	55 % of control	52 % of control	150	5	80 % of control	no hypoglycemia induced	180	150	at least 60%	alters the species of PI3K p85 variant present in favor of the p50α variant
